Experimental data reported in patent US20210137117A1, “HERBICIDAL MIXTURES” (Bayer Aktiengesellschaft, priority 2017, published 2021).
“And” between values parts separate entries of the source, which are not always exact repeats. Equal entries are not always repeated.

What was measured:
Assay in all cases: Pre-emergence action against weeds (greenhouse)
Assay type in all cases: in vivo
PAPRH (Papaver rhoeas) = system: PAPRH (Papaver rhoeas)
Text: (§1) Depending on the trial conditions, the soil of the standard field soil is sterile or not sterile.
(§2) The amount of water used for spray application was 300l/ha.
PAPRH (Papaver rhoeas)—Poppy, common
(§3) Insofar as herbicidal effects of the compositions according to the invention compared to mixtures of the prior art or compared to components applied individually against economically important mono- and dicotyledonous harmful plants were the centre of attention, the synergistic herbicidal activities were calculated using Colby's formula (cf. S. R. Colby; Weeds 15 (1967), 20-22): […]

[1] = system: TRZAS (Triticum aestivum)
Text: as §1, §2
TRZAS (Triticum aestivum)—Wheat, spring
as §3

[2] = system: LOLRI—sensitive (Lolium rigidum)
Text: as §1, §2
LOLRI—sensitive (Lolium rigidum) sensitive to customary herbicidally active compounds.
as §3

[3] = system: ALOMY—resistant (Alopecurus myosuroides)
Text: as §1, §2
ALOMY—resistant (Alopecurus myosuroides) resistant to herbicidally active compounds of the HRAC groups A and B; population mixture of field origin having increased metabolic resistance (IMR) and some target site resistance (TSR).
as §3

AVEFA (Avenafatua) = system: AVEFA (Avenafatua)
Text: as §1, §2
AVEFA (Avenafatua)—Wild oat
as §3

BROST (Bromus sterilis) = system: BROST (Bromus sterilis)
Text: as §1, §2
BROST (Bromus sterilis)—Bromegrass, barren
as §3

[4] = system: VERHE (Veronica hederaefolia)
Text: as §1, §2
VERHE (Veronica hederaefolia)—Speedwell, iveleaf
as §3

[5] = system: SORHA (Sorghum halepense)
Text: as §1, §2
SORHA (Sorghum halepense)—Johnsongrass
as §3

HORVS (Hordeum vulgare) = system: HORVS (Hordeum vulgare)
Text: as §1, §2
HORVS (Hordeum vulgare)—Barley, spring
as §3

CENCY (Centaurea cyanus) = system: CENCY (Centaurea cyanus)
Text: as §1, §2
CENCY (Centaurea cyanus)—Cornflower
as §3

[6] = system: LOLRI—resistant (Lolium rigidum)
Text: as §1, §2
LOLRI—resistant (Lolium rigidum) resistant to herbicidally active compounds of the HRAC groups A and B; population mixture of field origin having increased metabolic resistance (IMR) and some target site resistance (TSR).
as §3

[7] = system: ALOMY—sensitive (Alopecurus myosuroides)
Text: as §1, §2
ALOMY—sensitive (Alopecurus myosuroides) sensitive to customary herbicidally active compounds.
as §3

[8] = system: RAPRA (Raphanus raphanistrum)
Text: as §1, §2
RAPRA (Raphanus raphanistrum)—Charlock, jointed
as §3

BRSNW (Brassica napus) = system: BRSNW (Brassica napus)
Text: as §1, §2
BRSNW (Brassica napus)—Rape, winter
as §3

EMEAU (Emex australis) = system: EMEAU (Emex australis)
Text: as §1, §2
EMEAU (Emex australis)—Cathead
as §3

[9] = pre-emergence, dose 100 g AS/ha

CC1(C)CON(Cc2ccc(Cl)cc2Cl)C1=O [2-[(2,4-dichlorophenyl)methyl]-4,4-dimethyl-3-isoxazolidinone]
15%: herbicidal action (AVEFA (Avenafatua); 50 g AS/ha) | herbicidal action ([4]; 10 g AS/ha) | herbicidal action (HORVS (Hordeum vulgare); 100 g AS/ha)
40: Herbicidal action SORHA [5, 9] | Herbicidal action RAPRA [8, 9]
70%: herbicidal action ([1]; 500 g AS/ha) | herbicidal action ([2]; 50 g AS/ha) | herbicidal action ([2]; 100 g AS/ha) | herbicidal action (AVEFA (Avenafatua); 200 g AS/ha) | herbicidal action (BROST (Bromus sterilis); 400 g AS/ha) | herbicidal action ([4]; 50 g AS/ha) | herbicidal action (CENCY (Centaurea cyanus); 100 g AS/ha) | herbicidal action (EMEAU (Emex australis); 400 g AS/ha) | herbicidal action (EMEAU (Emex australis); 500 g AS/ha)
93%: herbicidal action ([3]; 250 g AS/ha) | herbicidal action ([7]; 250 g AS/ha)
10%: herbicidal action (CENCY (Centaurea cyanus); 50 g AS/ha) | herbicidal action (EMEAU (Emex australis); 50 g AS/ha)
90%: herbicidal action ([2]; 200 g AS/ha) | herbicidal action ([4]; 200 g AS/ha) | herbicidal action ([8]; 500 g AS/ha)
65%: herbicidal action (BROST (Bromus sterilis); 250 g AS/ha)
70% and 75%: herbicidal action ([6]; 100 g AS/ha)
5: Herbicidal action (crop damage) TRZAS [1, 9]
0: Herbicidal action BRSNW (BRSNW (Brassica napus); [9])
2%: herbicidal action (HORVS (Hordeum vulgare); 25 g AS/ha)
20%: herbicidal action (BROST (Bromus sterilis); 100 g AS/ha) | herbicidal action ([7]; 50 g AS/ha) | herbicidal action ([8]; 50 g AS/ha) | herbicidal action (BRSNW (Brassica napus); 250 g AS/ha) | herbicidal action (BRSNW (Brassica napus); 400 g AS/ha) | herbicidal action (BRSNW (Brassica napus); 500 g AS/ha)
60%: herbicidal action ([1]; 400 g AS/ha) | herbicidal action ([3]; 100 g AS/ha) | herbicidal action ([5]; 200 g AS/ha) | herbicidal action (HORVS (Hordeum vulgare); 400 g AS/ha) | herbicidal action (HORVS (Hordeum vulgare); 500 g AS/ha) | herbicidal action ([7]; 100 g AS/ha) | herbicidal action ([8]; 250 g AS/ha) | herbicidal action (EMEAU (Emex australis); 250 g AS/ha)
5%: herbicidal action ([1]; 100 g AS/ha) | herbicidal action (AVEFA (Avenafatua); 25 g AS/ha) | herbicidal action (HORVS (Hordeum vulgare); 50 g AS/ha) | herbicidal action ([6]; 25 g AS/ha) | herbicidal action ([8]; 25 g AS/ha) | herbicidal action (BRSNW (Brassica napus); 200 g AS/ha)
60: Herbicidal action ALOMY resistant [3, 9] | Herbicidal action ALOMY sensitive [7, 9]
75%: herbicidal action (AVEFA (Avenafatua); 250 g AS/ha) | herbicidal action (AVEFA (Avenafatua); 400 g AS/ha) | herbicidal action (BROST (Bromus sterilis); 500 g AS/ha)
0%: herbicidal action ([1]; 10 g AS/ha) | herbicidal action ([1]; 25 g AS/ha) | herbicidal action ([1]; 50 g AS/ha) | herbicidal action ([2]; 10 g AS/ha) | herbicidal action ([3]; 10 g AS/ha) | herbicidal action ([3]; 25 g AS/ha) | herbicidal action (AVEFA (Avenafatua); 10 g AS/ha) | herbicidal action (BROST (Bromus sterilis); 10 g AS/ha) | herbicidal action (BROST (Bromus sterilis); 25 g AS/ha) | herbicidal action (BROST (Bromus sterilis); 50 g AS/ha) | herbicidal action ([5]; 10 g AS/ha) | herbicidal action ([5]; 25 g AS/ha) | herbicidal action (HORVS (Hordeum vulgare); 10 g AS/ha) | herbicidal action (CENCY (Centaurea cyanus); 10 g AS/ha) | herbicidal action (CENCY (Centaurea cyanus); 25 g AS/ha) | herbicidal action ([6]; 10 g AS/ha) | herbicidal action ([7]; 10 g AS/ha) | herbicidal action ([7]; 25 g AS/ha) | herbicidal action ([8]; 10 g AS/ha) | herbicidal action (BRSNW (Brassica napus); 10 g AS/ha) | herbicidal action (BRSNW (Brassica napus); 25 g AS/ha) | herbicidal action (BRSNW (Brassica napus); 50 g AS/ha) | herbicidal action (BRSNW (Brassica napus); 100 g AS/ha) | herbicidal action (EMEAU (Emex australis); 10 g AS/ha) | herbicidal action (EMEAU (Emex australis); 25 g AS/ha)
95%: herbicidal action (PAPRH (Papaver rhoeas); 250 g AS/ha) | herbicidal action (PAPRH (Papaver rhoeas); 400 g AS/ha) | herbicidal action (PAPRH (Papaver rhoeas); 500 g AS/ha) | herbicidal action ([2]; 250 g AS/ha) | herbicidal action ([2]; 400 g AS/ha) | herbicidal action ([2]; 500 g AS/ha) | herbicidal action ([3]; 400 g AS/ha) | herbicidal action ([3]; 500 g AS/ha) | herbicidal action ([4]; 250 g AS/ha) | herbicidal action ([4]; 400 g AS/ha) | herbicidal action ([4]; 500 g AS/ha) | herbicidal action ([7]; 200 g AS/ha) | herbicidal action ([7]; 400 g AS/ha) | herbicidal action ([7]; 500 g AS/ha)
94%: herbicidal action ([6]; 400 g AS/ha) | herbicidal action ([6]; 500 g AS/ha)
50: Herbicidal action AVEFA (AVEFA (Avenafatua); [9])
15: Herbicidal action (crop damage) HORVS (HORVS (Hordeum vulgare); [9])
50%: herbicidal action ([1]; 250 g AS/ha) | herbicidal action (AVEFA (Avenafatua); 100 g AS/ha) | herbicidal action (HORVS (Hordeum vulgare); 250 g AS/ha) | herbicidal action ([8]; 200 g AS/ha)
88%: herbicidal action (CENCY (Centaurea cyanus); 200 g AS/ha)
40%: herbicidal action ([1]; 200 g AS/ha) | herbicidal action ([4]; 25 g AS/ha) | herbicidal action ([5]; 100 g AS/ha) | herbicidal action (HORVS (Hordeum vulgare); 200 g AS/ha) | herbicidal action ([8]; 100 g AS/ha) | herbicidal action (EMEAU (Emex australis); 200 g AS/ha)
10% and 20%: herbicidal action ([3]; 50 g AS/ha)
70: Herbicidal action LOLRI sensitive [2, 9] | Herbicidal action CENCY (CENCY (Centaurea cyanus); [9])
80: Herbicidal action VERHE [4, 9]
20: Herbicidal action BROST (BROST (Bromus sterilis); [9]) | Herbicidal action EMEAU (EMEAU (Emex australis); [9])
60% and 30%: herbicidal action ([6]; 50 g AS/ha)
80%: herbicidal action ([3]; 200 g AS/ha) | herbicidal action (AVEFA (Avenafatua); 500 g AS/ha) | herbicidal action ([4]; 100 g AS/ha) | herbicidal action ([6]; 200 g AS/ha) | herbicidal action ([6]; 250 g AS/ha) | herbicidal action ([8]; 400 g AS/ha)
75: Herbicidal action LOLRI resistant [6, 9]
30%: herbicidal action ([2]; 25 g AS/ha) | herbicidal action (BROST (Bromus sterilis); 200 g AS/ha) | herbicidal action ([5]; 50 g AS/ha)
